In experiment [1] the test system is NCI-H358 cells with Kras G12C mutation. As to the kind of experiment: Cell proliferation inhibition experiment, 3D spheroid, CellTiter-Glo (Test Example 1). It counts as cell-based, human. Conditions: 5 days. Put shortly: (§1)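 NCI-H358 (800 cells/well) and A549 (400 cells/well) grown overnight as 3D spheroids in 2% FBS medium, then exposed to compound dilution series (3.16-fold, 0.1% DMSO) for 5 days. CellTiter-Glo luminescence read; inhibition relative to DMSO and blank, IC50 by four-parameter fit.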

Experiment [2] deals with A549 cells with Kras G12S mutation. The description is as above. Format: cell-based, human. Conditions: 5 days. Put shortly: as §1
Experiment [3] concerns MIA PaCa-2 cells with Kras G12C mutation. As to the kind of experiment: Cell proliferation inhibition experiment, 3D spheroid, CellTiter-Glo (Test Example 3). The note with it: 5 days, read-out: MIA-PaCa2 IC50. Format: cell-based, human. Put shortly:
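MIA PaCa-2 spheroids (200 cells/well) were formed overnight, then exposed for 5 days to compounds in 3.16-fold dilutions at 0.1% DMSO. Viability was read by CellTiter-Glo luminescence, and inhibition was normalised to DMSO control and medium blank. IC50 came from a four-parameter fit.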
(In general: Cellular ATP, detected with luciferase, serves as a proxy for viable cell number.)

Experiment [4] deals with KRas G12C (Homo sapiens (Human), UniProt P01116, G12C). As to the kind of experiment: Nucleotide exchange assay (NEA)-HTRF, SOS1 catalyzed displacement of GDP by GTP (Test Example 4). Format: biochemical. Here is the method: The effects of compounds on SOS1 catalyzed displacement of GDP by GTP on KRas proteins was examined by homogeneous time-resolved fluorescence (HTRF). 30 μM 6×his labeled KRas G12C recombinant protein and 80 μM fluorochrome DY647 labeled GDP were co-incubated in a labeling buffer (1 mM DTT, 7.5 mM EDTA, 25 mM Tris-HCl, 45 mM NaCl) at 20° C. away from light for 2 hours. Protein quantification was performed after purification on the NAP-5 column to determine the concentration of KRas G12C-GDP.
KRas G12C, sequence (P01116-2 other isoform, or with tags, fused parts or gaps G12C): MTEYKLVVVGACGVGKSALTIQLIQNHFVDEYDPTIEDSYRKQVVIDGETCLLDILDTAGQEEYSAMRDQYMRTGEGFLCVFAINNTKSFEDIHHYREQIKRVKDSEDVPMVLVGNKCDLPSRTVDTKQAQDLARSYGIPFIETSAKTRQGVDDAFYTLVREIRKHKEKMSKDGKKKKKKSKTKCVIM
1000× stock solutions of compounds at a concentration gradient of 3.16 were prepared by using DMSO, and diluted 250 times by a reaction buffer (40 mM N-2-hydroxyethylpiperazine-N-2-ethane sulfonic acid (HEPES), 10 mM MgCl2, 1 mM DTT, 0.002% Triton X-100) into 4× stock solutions of compounds. KRas G12C-GDP/Tb working solution (40 nM KRas G12C-GDP, 1×anti-his Tb) and SOS1/GTP working solution (0.2 μM SOS1, 200 μM GTP) were prepared by using the reaction buffer.
5 μl of 4×stock solution of a compound and 10 μl of KRas G12C-GDP/T working solution were added to each well of 96-well plate with white unclear bottom, and 5 μl of reaction buffer was added to the well of control group in stead of the 4×stock solution of a compound. After incubation at 20° C. away from light for 15 minutes, 5 μl of SOS1/GTP working solution was added and incubated at 20° C. away from light for 2 hours, and then a value of fluorescence intensity was read (excitation wavelength: 320 nm, and emission wavelengths: 615 nm and 665 nm). Besides, group TO was established with 10 μl of the reaction buffer and 10 μl of the KRas G12C-GDP/Tb working solution, and the value of fluorescence intensity was directly read. A relative light unit (RLU) was calculated by the following equation: RLU=(665 nm signal/615 nm signal)×10^4; and the inhibition rate (IR) of the compound was calculated by the following equation: IR (%)=(RLUcompound−RLUcontrol)/(RLUT0−RLUcontrol)×100%. The value of IC50 was calculated by fitting a gradiently diluted concentration of the compound and the corresponding cell proliferation inhibition rate using a four-parameter method.

Experiment [5] relates to phosphorylated ERK in MIA PaCa2 cells with Kras G12C mutation. As to the kind of experiment: p-ERK HTRF assay for cells (Test Example 2). It counts as cell-based, human. Put shortly: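 MIA PaCa2 cells (2.5E4/well, seeded overnight) treated 2 h with compound in a 3.16-fold series at 0.1% DMSO. Cells lysed 30 min; p-ERK read by HTRF after 4 h antibody incubation. Inhibition relative to DMSO and blank; IC50 by four-parameter fit.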

[6] abbreviates: Homo sapiens, MIA PaCa-2, 120 h.
The mark [7] stands for this setting: MIA PaCa2 cells, 2 hours with compound, read-out: p-ERK IC50.
Setting [8] is: Homo sapiens, MIA PaCa-2, 2 h, read-out: p-ERK IC50, MIA PaCa2 cells, 2 hours with compound.
The mark [9] stands for this setting: Homo sapiens, MIA PaCa-2, 2 h, MIA PaCa2 cells, 2 hours with compound, read-out: p-ERK IC50.

Each structure is given as a SMILES string. Like-named read-outs stand apart in the source and are kept apart here. Bounds are passed on as bounds.

As for `C=CC(=O)N1C[C@@H]2C(=O)N(C)c3c(c4cc(F)c(-c5c(O)cccc5F)nc4n(-c4c(C)cnn4C(C)C)c3=O)N2C[C@H]1C` (single isomer, unassigned) [Compound Z33-1], the 50% inhibitory concentration (IC50) (commonly the midpoint of a concentration-inhibition curve) in experiment [1] was 74 nM; in experiment [2] it was over 30000 nM; in experiment [3] (setting [6]), 92 nM; in experiment [4], 515 nM.

In the case of `C=CC(=O)N1C[C@@H]2C(=O)Nc3c(c4cc(F)c(-c5c(O)cccc5F)nc4n(-c4c(C)ccnc4C(C)C)c3=O)N2C[C@H]1C` [Compound Z35, (2R,4aR)-3-acryloyl-11-fluoro-10-(2-fluoro-6-hydroxyphenyl)-8-(2-isopropyl-4-methylpyridin-3-yl)-2-methyl-2,3,4,4a,6,8-hexahydro-1H-pyrazino[1′, 2′:4]pyrazino[2,3,3-c][1,8,8]naphthyridin-5-dione], the half-inhibitory concentration (IC50) in experiment [5] (setting [7]) was 83 nM; in experiment [1], 6 nM; in experiment [2] (Homo sapiens, A549, 120 h) it was 28200 nM; in experiment [3] (setting [6]), 15 nM; in experiment [4], 73 nM.

Consider `C=CC(=O)N1CCN2c3c(c(=O)n(-c4c(C)ccnc4C(C)C)c4nc(-c5c(O)cccc5F)c(Cl)cc34)N(C)C(=O)[C@H]2C1` [Compound Z25, (4aR)-3-acryloyl-11-chloro-10-(2-fluoro-6-hydroxyphenyl)-8-(2-isopropyl-4-methylpyridin-3-yl)-6-methyl-2,3,4,4a,6,8-hexahydro-1H-pyrazino[1′,2′:4,5]pyrazino[2,3-c][1,8]naphthyridin-5,7-dione], for which the 50% inhibitory concentration (IC50) in experiment [5] (setting [8]) turned out to be 51 nM; in experiment [1] (Homo sapiens, NCI-H358, 120 h) it was 4 nM; in experiment [2] (Homo sapiens, A549, 120 h), 28300 nM; in experiment [3] (Homo sapiens, 120 h), 8 nM; in experiment [4], 60 nM.

In the case of `C=CC(=O)N1CCN2c3c(c(=O)n(-c4c(C)ccnc4C(C)C)c4nc(-c5c(O)cccc5F)c(Cl)cc34)NC(=O)[C@H]2C1` (single isomer, unassigned) [Compound Z24-2], the 50% inhibitory concentration (IC50) is 61 nM in experiment [5] (setting [7]); 3 nM in experiment [1]; 11300 nM in experiment [2]; 4 nM in experiment [3] (setting [6]); 38 nM in experiment [4].

As to `C=CC(=O)N1CCN2c3c(c(=O)n(-c4c(C)ccnc4C(C)C)c4nc(-c5c(O)cccc5F)c(F)cc34)OC[C@H]2C1` (single isomer, unassigned) [Compound Z1-1], the IC50 in experiment [5] (setting [9]) came out at 512 nM; in experiment [1], 31 nM; in experiment [2], 10700 nM; in experiment [3] (setting [6]), 95 nM; in experiment [4], 152 nM.

Regarding `[2H]C([2H])([2H])N1C(=O)[C@H]2CN(C(=O)C=C)CCN2c2c1c(=O)n(-c1c(C)ccnc1C(C)C)c1nc(-c3c(O)cccc3F)c(Cl)cc21` [Compound Z26, (4aR)-3-acryloyl-11-chloro-10-(2-fluoro-6-hydroxyphenyl)-8-(2-isopropyl-4-methylpyridin-3-yl)-6-(methyl-d3)-2,3,4,4a,6,8-hexahydro-1H-pyrazino[1′,2′:4,5]pyrazino[2,3-c][1,8]naphthyridin-5,7-dione], the IC50 in experiment [5] (setting [8]) amounted to 39 nM; in experiment [1], 2 nM; in experiment [2], 12900 nM; in experiment [3] (Homo sapiens, 120 h), 5 nM; in experiment [4] it was 34 nM.

`C=CC(=O)N1CCN2c3c(c(=O)n(-c4c(C(C)C)ccnc4C(C)C)c4c(F)c(-c5c(O)cccc5F)c(Cl)cc34)N(C)C(=O)[C@H]2C1` [Compound Z37]: the 50% inhibitory concentration (IC50) in experiment [5] (setting [9]) was determined as 21 nM; in experiment [1] (Homo sapiens, NCI-H358, 120 h), 1 nM; in experiment [2] (Homo sapiens, A549, 120 h), 8570 nM; in experiment [3] (setting [6]), 4 nM; in experiment [4], 20 nM.

On to `C=CC(=O)N1C[C@@H]2C(=O)N(C)c3c(c4cc(F)c(-c5c(O)cccc5F)nc4n(-c4c(C#N)cccc4C(C)C)c3=O)N2C[C@H]1C` (atropisomer, axis not shown) [Compound Z38-1, 2-((2R,4aR)-3-acryloyl-11-fluoro-10-(2-fluoro-6-hydroxyphenyl)-2,6-dimethyl-5,7-dioxo-2,3,4,4a,5,6-hexahydro-1H-pyrazino[1′,2′:4,5]pyrazino[2,3-c][1,8]naphthyridin-8(7H)-yl)-3-isopropylbenzonitrile], for which the IC50 was 212 nM in experiment [5] (setting [7]); 7 nM in experiment [1]; over 30000 nM in experiment [2]; 27 nM in experiment [3]; 53 nM in experiment [4].

On to `C=CC(=O)N1C[C@@H]2C(=O)N(C)c3c(c4cc(Cl)c(-c5c(O)cccc5F)c(F)c4n(-c4c(C(C)C)ncnc4C(C)C)c3=O)N2C[C@H]1C` (single isomer, unassigned) [Compound Z50-1], for which the IC50 in experiment [5] (setting [7]) is 6 nM; in experiment [1], 0.3 nM; in experiment [2], over 30000 nM; in experiment [3] (setting [6]), 1 nM; in experiment [4], 8 nM.

Consider `C=CC(=O)N1CCN2c3c(c(=O)n(-c4c(C)ccnc4C(C)C)c4nc(-c5c(O)cccc5F)c(F)cc34)N(CC)C(=O)[C@H]2C1` [Compound Z30, (4aR)-3-acryloyl-6-ethyl-11-fluoro-10-(2-fluoro-6-hydroxyphenyl)-8-(2-isopropyl-4-methylpyridin-3-yl)-2,3,4,4a,6,8-hexahydro-1H-pyrazino[1′,2′:4,5]pyrazino[2,3-c][1,8]naphthyridin-5,7-dione], for which the IC50 in experiment [5] (setting [9]) was 676 nM; in experiment [1] it was 51 nM; in experiment [2] (Homo sapiens, A549, 120 h), over 30000 nM; in experiment [3] (setting [6]), 140 nM; in experiment [4], 656 nM.

For `C=CC(=O)N1CCN2c3c(c(=O)n(-c4c(C)ncnc4C(C)C)c4nc(-c5c(O)cccc5F)c(F)cc34)N(C)C(=O)[C@H]2C1` [Compound Z21, (4aR)-3-acryloyl-11-fluoro-10-(2-fluoro-6-hydroxyphenyl)-8-(4-isopropyl-6-methylpyrimidin-5-yl)-6-methyl-2,3,4,4a,6,8-hexahydro-1H-pyrazino[1′,2′:4,5]pyrazino[2,3-c][1,8]naphthyridin-5,7-dione], the IC50 in experiment [5] (setting [9]) was 271 nM; in experiment [1] (Homo sapiens, NCI-H358, 120 h) it was 23 nM; in experiment [2] (Homo sapiens, A549, 120 h), over 30000 nM; in experiment [3] (setting [6]), 47 nM; in experiment [4], 388 nM.

As to `C=CC(=O)N1C[C@@H]2C(=O)N(C)c3c(c4cc(Cl)c(-c5c(O)cccc5F)c(F)c4n(-c4c(C(C)C)ncnc4C(C)C)c3=O)N2C[C@H]1C` [Compound Z50], the IC50 was 7 nM in experiment [5] (setting [9]); 0.5 nM in experiment [1] (Homo sapiens, NCI-H358, 120 h); 28300 nM in experiment [2] (Homo sapiens, A549, 120 h); 2 nM in experiment [3] (setting [6]); 19 nM in experiment [4].

In the case of `C=CC(=O)N1C[C@@H]2C(=O)N(C)c3c(c4cc(F)c(-c5c(O)cccc5F)nc4n(-c4c(C)ccnc4C(C)C)c3=O)N2C[C@H]1C` [Compound Z10, (2R,4aR)-3-acryloyl-11-fluoro-10-(2-fluoro-6-hydroxyphenyl)-8-(2-isopropyl-4-methylpyridin-3-yl)-2,6-dimethyl-2,3,4,4a,6-hexahydro-1H-pyrazino[1′,2′:4,5]pyrazino[2,3-c][1,8,8]naphthyridin-5-dione], the half-maximal inhibitory concentration (IC50) is 75 nM in experiment [5] (setting [9]); 8 nM in experiment [1] (Homo sapiens, NCI-H358, 120 h); 12100 nM in experiment [2] (Homo sapiens, A549, 120 h); 67 nM in experiment [4].

Turning to `C=CC(=O)N1C[C@@H]2C(=O)N(C)c3c(c4cc(F)c(-c5c(O)cccc5F)nc4n(-c4c(C)ccnc4C(C)C)c3=O)N2C[C@H]1C` (single isomer, unassigned) [Compound Z10-1], the half-maximal inhibitory concentration (IC50) in experiment [5] (setting [7]) was 460 nM; in experiment [1] it was 70 nM; in experiment [2], over 10000 nM; in experiment [4], 708 nM.

Source of the values: patent US12054497B2, “Substituted heterocyclic fused cyclic compound, preparation method therefor and pharmaceutical use thereof” (GENFLEET THERAPEUTICS (SHANGHAI) INC., priority 2019, dated 2024).
